From ChEMBL document CHEMBL4706476, “Novel Tetrahydropyrido[4,3-d]pyrimidines as Potent Inhibitors of Chaperone Heat Shock Protein 90” (J Med Chem, 2016)
≈ marks a conversion by molar mass, not a printed value. Calls of active or inactive are those of the source. No cut-off for these calls is given here.

Assays:
[1] = Selectivity ratio of IC50 for inhibition of FITC-geldanamycin binding to N-terminal GRP94 (unknown origin) to IC50 for inhibition of FITC-geldanamycin binding to N-terminal HSP90alpha (unknown origin)
[2] = biological target: T1, Heat shock protein HSP90 (Homo sapiens) (UniProt P07900+P08238); assay: Inhibition of HSP90 in human HCT-116 cells assessed as reduction in AKT protein expression after 24 hrs by Western blot analysis; format: cell-based; conditions: dose 0.01-3 µM
[3] = biological target: T1, Heat shock protein HSP90 (Homo sapiens); assay: Inhibition of HSP90 in human HCT-116 cells assessed as reduction in Erk protein expression after 24 hrs by Western blot analysis; format: cell-based; conditions: dose 0.01-3 µM
[4] = biological target: T1, Heat shock protein HSP90 (Homo sapiens); assay: Inhibition of HSP90 in human HCT-116 cells assessed as reduction in phosphorylated Erk after 24 hrs by Western blot analysis; format: cell-based; conditions: dose 0.01-3 µM
[5] = biological target: T1, Heat shock protein HSP90 (Homo sapiens); assay: Inhibition of HSP90 in human HCT-116 cells assessed as induction of HSP70 expression after 24 hrs by Western blot analysis; format: cell-based; conditions: dose 0.01-3 µM
Rattus norvegicus [6] = assay: Ex vivo inhibition of HSP90 in Sprague-Dawley rat assessed as up regulation of HSP70 expression in retina at 20 mg/kg, iv administered for 2 consecutive days and measured 24 hrs post last dose by Western blot analysis; format: functional, organism-based; conditions: time 3.0 day
Rattus norvegicus [7] = assay: Ex vivo inhibition of HSP90 in Sprague-Dawley rat assessed as up regulation of HSP70 expression in retina at 20 mg/kg, iv administered for 2 consecutive days and measured 24 hrs post last dose by immunohistochemistry analysis; format: functional, organism-based; conditions: time 3.0 day
HCT-116 [8] = assay: Antitumor activity against human HCT-116 cells xenografted in nude mouse assessed as decrease in tumor cells at 40 to 60 mg/kg, ip administered every other day for 16 days by hematoxylin and eosin staining based assay; conditions: dose 40-60 mg/kg, time 16.0 day
Mus musculus [9] = assay: In vivo inhibition of HSP90 in nude mouse xenografted with human HCT-116 cells assessed as decrease in Akt protein level in tumor at 40 to 60 mg/kg, ip administered every other day for 16 days and measured after 12 hrs post last dose by Western blot analysis; conditions: dose 40-60 mg/kg, time 16.0 day
Mus musculus [10] = assay: In vivo inhibition of HSP90 in nude mouse xenografted with human HCT-116 cells assessed as decrease in Erk protein level in tumor at 40 to 60 mg/kg, ip administered every other day for 16 days and measured after 12 hrs post last dose by Western blot analysis; conditions: dose 40-60 mg/kg, time 16.0 day
Mus musculus [11] = assay: In vivo inhibition of HSP90 in nude mouse xenografted with human HCT-116 cells assessed as upregulation of HSP90 protein expression in tumor at 40 to 60 mg/kg, ip administered every other day for 16 days and measured after 12 hrs post last dose by Western blot analysis; conditions: dose 40-60 mg/kg, time 16.0 day
Mus musculus [12] = assay: In vivo inhibition of HSP90 in nude mouse xenografted with human HCT-116 cells assessed as upregulation of HSP70 protein expression in tumor at 40 to 60 mg/kg, ip administered every other day for 16 days and measured after 12 hrs post last dose by Western blot analysis; conditions: dose 40-60 mg/kg, time 16.0 day
[13] = Distribution coefficient, logD of compound at pH 7.4; format: physicochemical; conditions: octanol/water
[14] = biological target: Heat shock protein HSP 90-alpha (Homo sapiens, UniProt P07900); assay: Displacement of FITC-geldanamycin from N-terminal HSP90alpha (unknown origin) after 30 mins by fluorescence polarization competitive binding assay
[15] = Permeability of the compound at pH 7.4 by PAMPA; format: ADME; conditions: read-out: permeability
[16] = Intrinsic aqueous solubility of the compound; format: physicochemical
Endoplasmin = Endoplasmin (Homo sapiens, UniProt P14625); assay: Displacement of FITC-geldanamycin from N-terminal GRP94 (unknown origin) after 30 mins by fluorescence polarization competitive binding assay
Sequence of Endoplasmin (P14625 whole entry): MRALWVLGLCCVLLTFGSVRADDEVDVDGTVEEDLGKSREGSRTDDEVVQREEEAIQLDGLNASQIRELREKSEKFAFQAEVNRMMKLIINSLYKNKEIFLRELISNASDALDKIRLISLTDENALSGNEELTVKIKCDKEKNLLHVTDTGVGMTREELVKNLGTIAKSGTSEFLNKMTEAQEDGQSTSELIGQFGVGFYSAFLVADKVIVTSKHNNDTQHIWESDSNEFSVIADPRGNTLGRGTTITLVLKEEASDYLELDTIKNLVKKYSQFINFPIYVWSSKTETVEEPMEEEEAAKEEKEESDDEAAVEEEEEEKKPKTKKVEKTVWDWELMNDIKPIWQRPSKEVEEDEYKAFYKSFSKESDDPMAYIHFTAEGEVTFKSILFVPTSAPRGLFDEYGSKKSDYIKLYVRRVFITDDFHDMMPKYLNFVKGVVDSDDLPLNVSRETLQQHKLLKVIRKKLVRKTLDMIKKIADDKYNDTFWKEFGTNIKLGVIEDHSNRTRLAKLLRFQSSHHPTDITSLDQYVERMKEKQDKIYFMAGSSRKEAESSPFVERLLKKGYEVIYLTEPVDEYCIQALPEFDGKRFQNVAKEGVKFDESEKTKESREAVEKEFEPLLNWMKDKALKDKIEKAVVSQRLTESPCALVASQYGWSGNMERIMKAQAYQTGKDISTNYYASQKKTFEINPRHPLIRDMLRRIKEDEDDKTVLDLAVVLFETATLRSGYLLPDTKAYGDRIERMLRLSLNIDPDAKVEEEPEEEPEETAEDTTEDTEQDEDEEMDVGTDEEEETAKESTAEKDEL

MDA-MB-231 = assay: Antiproliferative activity against human MDA-MB-231 assessed as reduction in cell viability incubated for 72 hrs by MTT assay; format: functional, cell-based; conditions: MDA-MB-231, 72 h
MDA-MB-468 = assay: Antiproliferative activity against human MDA-MB-468 assessed as reduction in cell viability incubated for 72 hrs by MTT assay; format: functional, cell-based; conditions: MDA-MB-468, 72 h
SK-BR-3 = assay: Antiproliferative activity against human SK-BR-3 assessed as reduction in cell viability incubated for 72 hrs by MTT assay; format: functional, cell-based; conditions: SK-BR-3, 72 h
T47D = assay: Antiproliferative activity against human T47D assessed as reduction in cell viability incubated for 72 hrs by MTT assay; format: functional, cell-based
BT-474 = assay: Antiproliferative activity against human BT-474 assessed as reduction in cell viability incubated for 72 hrs by MTT assay; format: functional, cell-based; conditions: BT-474, 72 h
U2OS = assay: Antiproliferative activity against human U2OS assessed as reduction in cell viability incubated for 72 hrs by MTT assay; format: functional, cell-based
MKN-28 = assay: Antiproliferative activity against human MKN-28 assessed as reduction in cell viability incubated for 72 hrs by MTT assay; format: functional, cell-based; conditions: MKN-28, 72 h
A549 = assay: Antiproliferative activity against human A549 assessed as reduction in cell viability incubated for 72 hrs by MTT assay; format: functional, cell-based; conditions: A549, 72 h
HepG2 = assay: Antiproliferative activity against human HepG2 assessed as reduction in cell viability incubated for 72 hrs by MTT assay; format: functional, cell-based; conditions: HepG2, 72 h
K562 = assay: Antiproliferative activity against human K562 assessed as reduction in cell viability incubated for 72 hrs by MTT assay; format: functional, cell-based; conditions: K562, 72 h
MV4-11 = assay: Antiproliferative activity against human MV4-11 assessed as reduction in cell viability incubated for 72 hrs by MTT assay; format: functional, cell-based; conditions: MV4-11, 72 h
L02 = assay: Cytotoxicity against human L02 cells assessed as reduction in cell viability incubated for 72 hrs by MTT assay; format: cell-based; conditions: L02, 72 h
[17] = Tmax in rat at 50 mg/kg, po measured upto 24 hrs by LC-MS/MS analysis; format: ADME, organism-based; conditions: in vivo
[18] = Cmax in rat at 50 mg/kg, po measured upto 24 hrs by LC-MS/MS analysis; format: ADME, organism-based; parameters: route oral, dose 50 mg/kg, time <=24; conditions: in vivo
[19] = Half life in human liver microsomes at 1 uM preincubated for 5 mins followed by NADPH addition and measured up to 120 mins by LC-MS/MS analysis; format: ADME, Microsome; conditions: 2 h, time <=125 min
[20] = Intrinsic clearance in human liver microsomes at 1 uM preincubated for 5 mins followed by NADPH addition and measured up to 120 mins by LC-MS/MS analysis; format: ADME, Microsome; conditions: 2 h, time <=125 min
[21] = Metabolic stability in human liver microsomes assessed as parent compound remaining at 1 uM preincubated for 5 mins followed by NADPH addition and measured up to 120 mins by LC-MS/MS analysis; format: ADME, Microsome; conditions: 2 h, time <=125 min
[22] = Half-life in rat at 50 mg/kg, po measured upto 24 hrs by LC-MS/MS analysis; format: ADME, organism-based; conditions: in vivo
[23] = Half-life in rat at 10 mg/kg, iv measured upto 24 hrs by LC-MS/MS analysis; format: ADME, organism-based; conditions: in vivo
[24] = Apparent clearance during terminal phase in rat at 50 mg/kg, po measured upto 24 hrs by LC-MS/MS analysis; format: ADME, organism-based; conditions: in vivo, read-out: CLz/F (converted)
[25] = Apparent clearance during terminal phase in rat at 10 mg/kg, iv measured upto 24 hrs by LC-MS/MS analysis; format: ADME, organism-based; conditions: in vivo
[26] = AUC (0 to t) in rat at 50 mg/kg, po measured upto 24 hrs by LC-MS/MS analysis; format: ADME, organism-based; parameters: route oral, dose 50 mg/kg, time <=24; conditions: in vivo
[27] = AUC (0 to t) in rat at 10 mg/kg, iv measured upto 24 hrs by LC-MS/MS analysis; format: ADME, organism-based; parameters: route intravenous, dose 10 mg/kg, time <=24; conditions: in vivo
[28] = Oral bioavailability in rat at 50 mg/kg measured upto 24 hrs by LC-MS/MS analysis; format: ADME, organism-based; conditions: in vivo
[29] = Apparent volume of distribution in rat at 50 mg/kg, po measured upto 24 hrs by LC-MS/MS analysis; format: ADME, organism-based; conditions: in vivo
[30] = Apparent volume of distribution in rat at 10 mg/kg, iv measured upto 24 hrs by LC-MS/MS analysis; format: ADME, organism-based; conditions: in vivo, read-out: Vz
HCT-116 [31] = assay: cells; conditions: Homo sapiens, HCT-116, 72 h
Description: Antiproliferative activity against human HCT-116 cells assessed as reduction in cell viability incubated for 72 hrs by MTT assay

MCF7 = assay: cells; conditions: Homo sapiens, MCF7, 72 h
HCT-116 [32] = assay: Antitumor activity against human HCT-116 cells xenografted in nude mouse assessed as reduction in relative tumor volume by measuring T/C ratio at 60 mg/kg, ip administered every other day for 16 days and monitored every 3 days; format: functional; conditions: time 16 day
CYP2D6 = CYP2D6 (Homo sapiens, UniProt P10635); assay: Inhibition of CYP2D6 in human liver microsomes at 10 uM using dextromethorphan as substrate preincubated for 5 mins followed by NADPH addition and measured after 20 mins by LC-MS/MS analysis relative to control; format: ADME; conditions: probe dextromethorphan, time 25 min
Sequence of CYP2D6 (P10635 whole entry): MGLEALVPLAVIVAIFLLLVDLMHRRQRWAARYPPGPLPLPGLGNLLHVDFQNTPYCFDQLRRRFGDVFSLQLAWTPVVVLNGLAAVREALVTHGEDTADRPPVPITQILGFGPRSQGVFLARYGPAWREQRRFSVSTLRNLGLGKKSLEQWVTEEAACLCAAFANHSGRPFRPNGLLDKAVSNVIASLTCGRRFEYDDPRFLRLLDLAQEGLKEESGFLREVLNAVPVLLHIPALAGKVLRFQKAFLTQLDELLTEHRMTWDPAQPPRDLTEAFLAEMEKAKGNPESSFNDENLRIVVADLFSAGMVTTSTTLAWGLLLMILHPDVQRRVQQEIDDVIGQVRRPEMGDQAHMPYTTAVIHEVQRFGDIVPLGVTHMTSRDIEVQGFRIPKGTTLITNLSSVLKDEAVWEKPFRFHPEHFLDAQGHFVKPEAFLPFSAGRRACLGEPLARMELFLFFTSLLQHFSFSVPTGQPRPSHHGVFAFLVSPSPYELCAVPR

Row | SMILES | Ratio IC50 [1] | inhibition [2] | inhibition [3] | inhibition [4] | inhibition [5] | IC50 [14] [nM] | Papp [15] [×10⁻⁶ cm/s] | IC50 (Endoplasmin) [nM] | IC50 (MDA-MB-231) [nM] | IC50 (MDA-MB-468) [nM] | IC50 (SK-BR-3) [nM] | IC50 (T47D) [nM] | IC50 (BT-474) [nM] | IC50 (U2OS) [nM] | IC50 (MKN-28) [nM] | IC50 (A549) [nM] | IC50 (HepG2) [nM] | IC50 (K562) [nM] | IC50 (MV4-11) [nM] | IC50 (L02) [nM] | further results
1 | CCNc1nc(OCCOC)nc2c1CN(C(=O)c1cc(C(C)C)c(O)cc1O)CC2 | 26 | Dose-dependent effect | Dose-dependent effect | Dose-dependent effect | Dose-dependent effect |  |  |  |  |  |  |  |  |  |  |  |  |  |  |  | inhibition (Rattus norvegicus [6]): inactive; inhibition (Rattus norvegicus [7]): inactive; Activity (HCT-116 [8]): Active; inhibition (Mus musculus [9]): Active; inhibition (Mus musculus [10]): Active; inhibition (Mus musculus [11]): Active; inhibition (Mus musculus [12]): Active
2 | COCCOc1ncc2c(n1)CCN(C(=O)c1cc(C(C)C)c(O)cc1O)C2 | 10.4 | Dose-dependent effect | Dose-dependent effect | Dose-dependent effect | Dose-dependent effect | 19 | 55.5 | 198 | 129 | 172 | 175 | 183 | 144 | 107 | 325 | 168 | 119 | 109 | 31 | 27600 | logD [13]: 2.14; solubility [16]: 140 µg/mL (≈ 361 µM); Tmax [17]: 0.5 h; Cmax [18]: 40.7 ng/mL; t1/2 [19]: 3.23 h; CLint [20]: 4.88 mL/min/kg; Stabilty [21]: 81.5%; half-life [22]: 7.4 h; half-life [23]: 4.16 h; CL/F [24]: 3320 mL/min/kg; CLz/F [25]: 235.3 mL/min/kg; AUC(0-t) at 24 h [26]: 265 ng·h/mL; AUC(0-t) at 24 h [27]: 757 ng·h/mL; bioavailability [28]: 7%; Vz [29]: 2072.05 L/kg; Vd [30]: 86.6 L/kg; IC50 (HCT-116 [31]): 170 nM; IC50 (MCF7): 120 nM
3 | CC(C)c1cc(C(=O)N2Cc3ccc(CN4CCN(C)CC4)cc3C2)c(O)cc1O [ONALESPIB] | 1.7 |  |  |  |  | 13 | 74.3 | 22 | 38 | 66 | 71 | 24 | 32 | 67 | 129 | 50 | 18 | 38 | 11 | 11600 | T/C (HCT-116 [32]): 21%; IC50 (HCT-116 [31]): 70 nM; IC50 (MCF7): 20 nM
4 | C=C[C@H]1C[N@@]2CC[C@H]1C[C@@H]2[C@@H](O)c1ccnc2ccc(OC)cc12 [QUINIDINE] |  |  |  |  |  |  |  |  |  |  |  |  |  |  |  |  |  |  |  |  | inhibition at 20 min, 10 µM (CYP2D6): 89%
